{
  "source": "patent US4055640A",
  "about": "“Compositions and methods for controlling the growth of bacteria, fungi and algae using certain derivatives of N-(2,2-dichlorovinyl)salicylamides” (Nippon Kayaku Co., Ltd., priority 1975, dated 1977)",
  "key": {"Penicillium citrenum": {"test_system": "Penicillium citrenum", "assay": "Growth inhibition zones around treated clothes (Example 16)", "type": "cell-based", "method": "(§1) The emulsifiable concentrate which was prepared by Example 10 and which contained 10% of Compound No. 1 was entered to three vessels. These emulsifiable concentrates were diluted with water 500 times, 1000 times and 2000 times respectively. Emulsions were obtained. Each of silk, cotton and vinylon clothes was dipped into the three different concentrations of emulsions for 3 minutes and dried for 24 hours at room temperature. The clothes dreid were cut into a square of which a side was 1 cm long.\n(§2) Test bacteria and fungi were inoculated on the whole surfaces of the plates of potato-dextrose agar medium. The square clothes were placed on the plates of agar culture medium of potato. The inoculated bacteria and fungi were incubated at 28° C for 4 days. The width of zones in which the growth of the test bateria and fungi was inhibited in the environment of the clothes was measured."}, "Bacillus subtilis [1]": {"test_system": "Bacillus subtilis", "assay": "Growth inhibition zones around treated clothes (Example 16)", "type": "cell-based", "method": "as §1, §2"}, "Aspergillus niger [2]": {"test_system": "Aspergillus niger", "assay": "Growth inhibition zones around treated clothes (Example 16)", "type": "cell-based", "method": "as §1, §2"}, "Staphylococcus aureus": {"test_system": "Staphylococcus aureus", "assay": "Growth inhibition zones around treated clothes (Example 16)", "type": "cell-based", "method": "as §1, §2"}, "[3]": {"test_system": "Rhizoctonia solani (damping-off of cucumber)", "assay": "Exterminating test on damping-off of cucumber (Experimental Example 3)", "type": "in vivo", "settings": "Rhizoctonia solani, soil, 240 h, 1,000 ppm, soil drench 50 ml per pot, 10 days; read-out: Percentage of healthy seedlings", "outline": "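Percentage of healthy seedlings was scored 10 days post inoculation, with PCNB 50% wettable powder run alongside as reference. Each pot held 10 Azumamidori cucumber seeds in field soil carrying 5 g Rhizoctonia solani. Soil drench: 50 ml water suspension of 80% wettable powder; greenhouse.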"}, "Bacillus subtilis [4]": {"test_system": "Bacillus subtilis", "assay": "Region of growth-inhibition around treated cotton cloth (Example 26)", "type": "cell-based", "settings": "emulsifiable concentrate diluted 100 times", "method": "(§3) The emulsifiable concentrates which were prepared by Example 20 were diluted with water 100 times to form an emulsion. A cloth of cotton was soaked into each emulsion for 2 minutes. The clothes were dried at room temperature and cut into a square of which a side was 1 cm long. Each kind of test bacteria and fungi was inoculated, separately, on plates of potato-agar and one square cloth placed on each of such plates. Test bacteria and fungi were cultivated at 28° C for 4 days. The width of the region of growth-inhibition which was formed a circumference of the cloth was measured."}, "Staphylococcus oureus": {"test_system": "Staphylococcus oureus", "assay": "Region of growth-inhibition around treated cotton cloth (Example 26)", "type": "cell-based", "settings": "emulsifiable concentrate diluted 100 times", "method": "as §3"}, "Aspergillus niger [5]": {"test_system": "Aspergillus niger", "assay": "Region of growth-inhibition around treated cotton cloth (Example 26)", "type": "cell-based", "settings": "emulsifiable concentrate diluted 100 times", "method": "as §3"}, "Penicillium Citrinum": {"test_system": "Penicillium Citrinum", "assay": "Region of growth-inhibition around treated cotton cloth (Example 26)", "type": "cell-based", "settings": "emulsifiable concentrate diluted 100 times", "method": "as §3"}, "[6]": {"test_system": "Xanthomonas citri (citrus canker)", "assay": "Exterminating test on citrus canker (Experimental Example 6)", "type": "in vivo", "settings": "Xanthomonas citri, 336 h, read-out: Effect Index, 1,000 ppm, 2 weeks after inoculation", "outline": "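Four-year-old potted summer orange seedlings sprayed with diluted 80% wettable powder, then needle-inoculated on leaves with Xanthomonas citri and held 24 h moist at 25 °C before greenhouse. Disease attack scored 2 weeks post-inoculation and expressed as an Effect Index.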"}, "[7]": {"test_system": "bacteria gathered from circular water system", "assay": "Degree of propagation on slime test boards (Example 27)", "type": "cell-based", "settings": "shaking culture for 2 days", "outline": "(§4)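 Wood slime test boards were soaked in Waxman's liquid medium holding 0.02 part active compound (as 10% water-soluble concentrate) per 100 parts medium. Medium was inoculated with bacteria from a circular water system, fungi or green algae and shake-cultured 2 days at 27°-34° C. Propagation on the boards was scored with symbols.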"}, "green algae": {"test_system": "green algae", "assay": "Degree of propagation on slime test boards (Example 27)", "type": "cell-based", "settings": "same method, shaking culture for 2 days", "outline": "as §4"}, "fungi": {"test_system": "fungi", "assay": "Degree of propagation on slime test boards (Example 27)", "type": "cell-based", "settings": "same method, shaking culture for 2 days", "outline": "as §4"}, "[8]": {"test_system": "Bacteria, fungi and slime", "assay": "Inhibition of bacteria, fungi and slime in use (Example 13)", "settings": "water soluble concentrate; 10-20 ppm in water, 0.01%-0.1% in pastes", "method": "Before application, the concentrate was diluted 500-1000 times with water and sprayed on the inside of cotes to prevent the growth of bacterial and fungi.\nThe solution was added to water in circular water systems to inhibit the growth of slime. The concentration of Compound No. 20 in the water was 10-20 ppm.\nAn amount from 0.01%-0.1% of Compound No. 20 as the solution was added to pastes or binding agents to prevent rottenness of them."}},
  "note": "Structures can show the parent of a compound that is named as a salt.",
  "data": [
    {"smiles": "O=C(NC=C(Cl)Cl)c1ccccc1O", "note": "[Compound No. 1, N-(β,β-dichlorovinyl) salicylamide]", "values": [
      {"measurement": "width of growth inhibition zones", "setting": "Penicillium citrenum; Cotton, 0.005 %", "value": 5, "unit": "mm"},
      {"measurement": "width of growth inhibition zones", "setting": "Penicillium citrenum; Cotton, 0.01 %", "value": 7, "unit": "mm"},
      {"measurement": "width of growth inhibition zones", "setting": "Penicillium citrenum; Cotton, 0.02 %", "value": 9, "unit": "mm"},
      {"measurement": "width of growth inhibition zones", "setting": "Penicillium citrenum; Silk, 0.005 %", "value": 4, "unit": "mm"},
      {"measurement": "width of growth inhibition zones", "setting": "Penicillium citrenum; Silk, 0.01 %", "value": 6, "unit": "mm"},
      {"measurement": "width of growth inhibition zones", "setting": "Penicillium citrenum; Silk, 0.02 %", "value": 7, "unit": "mm"},
      {"measurement": "width of growth inhibition zones", "setting": "Penicillium citrenum; Vinylon, 0.005 %", "value": 3, "unit": "mm"},
      {"measurement": "width of growth inhibition zones", "setting": "Penicillium citrenum; Vinylon, 0.01 %", "value": 5, "unit": "mm"},
      {"measurement": "width of growth inhibition zones", "setting": "Penicillium citrenum; Vinylon, 0.02 %", "value": 7, "unit": "mm"},
      {"measurement": "width of growth inhibition zones", "setting": "Bacillus subtilis [1]; Cotton, 0.005 %", "value": 3, "unit": "mm"},
      {"measurement": "width of growth inhibition zones", "setting": "Bacillus subtilis [1]; Cotton, 0.01 %", "value": 6, "unit": "mm"},
      {"measurement": "width of growth inhibition zones", "setting": "Bacillus subtilis [1]; Cotton, 0.02 %", "value": 10, "unit": "mm"},
      {"measurement": "width of growth inhibition zones", "setting": "Bacillus subtilis [1]; Silk, 0.005 %", "value": 3, "unit": "mm"},
      {"measurement": "width of growth inhibition zones", "setting": "Bacillus subtilis [1]; Silk, 0.01 %", "value": 6, "unit": "mm"},
      {"measurement": "width of growth inhibition zones", "setting": "Bacillus subtilis [1]; Silk, 0.02 %", "value": 10, "unit": "mm"},
      {"measurement": "width of growth inhibition zones", "setting": "Bacillus subtilis [1]; Vinylon, 0.005 %", "value": 2, "unit": "mm"},
      {"measurement": "width of growth inhibition zones", "setting": "Bacillus subtilis [1]; Vinylon, 0.01 %", "value": 5, "unit": "mm"},
      {"measurement": "width of growth inhibition zones", "setting": "Bacillus subtilis [1]; Vinylon, 0.02 %", "value": 9, "unit": "mm"},
      {"measurement": "width of growth inhibition zones", "setting": "Aspergillus niger [2]; Cotton, 0.005 %", "value": 6, "unit": "mm"},
      {"measurement": "width of growth inhibition zones", "setting": "Aspergillus niger [2]; Cotton, 0.01 %", "value": 8, "unit": "mm"},
      {"measurement": "width of growth inhibition zones", "setting": "Aspergillus niger [2]; Cotton, 0.02 %", "value": 11, "unit": "mm"},
      {"measurement": "width of growth inhibition zones", "setting": "Aspergillus niger [2]; Silk, 0.005 %", "value": 5, "unit": "mm"},
      {"measurement": "width of growth inhibition zones", "setting": "Aspergillus niger [2]; Silk, 0.01 %", "value": 7, "unit": "mm"},
      {"measurement": "width of growth inhibition zones", "setting": "Aspergillus niger [2]; Silk, 0.02 %", "value": 8, "unit": "mm"},
      {"measurement": "width of growth inhibition zones", "setting": "Aspergillus niger [2]; Vinylon, 0.005 %", "value": 4, "unit": "mm"},
      {"measurement": "width of growth inhibition zones", "setting": "Aspergillus niger [2]; Vinylon, 0.01 %", "value": 6, "unit": "mm"},
      {"measurement": "width of growth inhibition zones", "setting": "Aspergillus niger [2]; Vinylon, 0.02 %", "value": 8, "unit": "mm"},
      {"measurement": "width of growth inhibition zones", "setting": "Staphylococcus aureus; Cotton, 0.005 %", "value": 5, "unit": "mm"},
      {"measurement": "width of growth inhibition zones", "setting": "Staphylococcus aureus; Cotton, 0.01 %", "value": 9, "unit": "mm"},
      {"measurement": "width of growth inhibition zones", "setting": "Staphylococcus aureus; Cotton, 0.02 %", "value": 13, "unit": "mm"},
      {"measurement": "width of growth inhibition zones", "setting": "Staphylococcus aureus; Silk, 0.005 %", "value": 5, "unit": "mm"},
      {"measurement": "width of growth inhibition zones", "setting": "Staphylococcus aureus; Silk, 0.01 %", "value": 8, "unit": "mm"},
      {"measurement": "width of growth inhibition zones", "setting": "Staphylococcus aureus; Silk, 0.02 %", "value": 12, "unit": "mm"},
      {"measurement": "width of growth inhibition zones", "setting": "Staphylococcus aureus; Vinylon, 0.005 %", "value": 4, "unit": "mm"},
      {"measurement": "width of growth inhibition zones", "setting": "Staphylococcus aureus; Vinylon, 0.01 %", "value": 7, "unit": "mm"},
      {"measurement": "width of growth inhibition zones", "setting": "Staphylococcus aureus; Vinylon, 0.02 %", "value": 11, "unit": "mm"},
      {"measurement": "pest or weed control at 1000 ppm", "setting": "[3]", "value": 100, "unit": "%"}
    ]},
    {"smiles": "CC(=O)Oc1ccccc1C(=O)NC=C(Cl)Cl", "note": "[Compound No. 6, O-acetyl-N-(2,2-dichlorovinyl) salicylamide]", "values": [
      {"measurement": "width of the region of growth-inhibition", "setting": "Bacillus subtilis [4]", "value": 9, "unit": "mm"},
      {"measurement": "width of the region of growth-inhibition", "setting": "Staphylococcus oureus", "value": 7, "unit": "mm"},
      {"measurement": "width of the region of growth-inhibition", "setting": "Aspergillus niger [5]", "value": 5, "unit": "mm"},
      {"measurement": "width of the region of growth-inhibition", "setting": "Penicillium Citrinum", "value": 7, "unit": "mm"},
      {"measurement": "pest or weed control at 1000 ppm", "setting": "[6]", "value": 96.1, "unit": "%"},
      {"measurement": "pest or weed control at 1000 ppm", "setting": "[3]", "value": 100, "unit": "%"},
      {"measurement": "Degree of propagation", "setting": "[7]", "value": "-"},
      {"measurement": "Degree of propagation", "setting": "green algae", "value": "-"},
      {"measurement": "Degree of propagation", "setting": "fungi", "value": "-"}
    ]},
    {"smiles": "O=C(NC=C(Cl)Cl)c1ccccc1O", "note": "[Compound No. 20, sodium salt of N-(β,β-dichlorovinyl) salicylamide]", "values": [
      {"measurement": "inhibition of bacteria, fungi and slime", "setting": "[8]", "value": "inhibited for a long time"}
    ]}
  ]
}
